{
  "source": "patent US20130131008A1",
  "about": "“LIPOPHILIC MONOPHOSPHORYLATED DERIVATIVES AND NANOPARTICLES” (BOARD OF REGENTS, THE UNIVERSITY OF TEXAS SYSTEM, priority 2011, published 2013)",
  "key": {"[1]": {"test_system": "B16-F10 melanoma tumor", "assay": "Antitumor activity of GemC18/PEG-C18 micelles in mice with B16-F10 tumors (Example 20)", "assay_type": "in vivo, mouse", "conditions": "C57BL/6 mice, tail vein injection, 0.283 mg GemHCl or molar equivalent GemC18; 2 doses (micelles 3 doses), 3 days apart", "method": "The in vivo antitumor activity of GemC18/PEG-C18 micelles was evaluated in C57BL/6 mice with subcutaneously inoculated B16-F10 cells (5.0×10^5/mouse) in the right flank. Treatments were given 6 days after tumor cell inoculation by tail vein injection with normal saline, Gemcitabine HCl (GemHCl) solution, GemC18 solution, blank PEG-C18 micelles, or GemC18/PEG-C18 micelles. The dose was 0.283 mg of GemHCl or molar equivalent amount of GemC18. All groups received a second dose three days after the first dose, while the GemC18/PEG-C18 micelle group also received a third dose 3 days after the second dose. Tumor sizes were measured with calipers in two perpendicular diameters every day and reported as tumor volume (V=½ [a×b^2], a=longer diameter, b=shorter diameter)."}, "[2]": {"molecular_target": "T1, dCDA partially purified from BxPC-3 cells (Homo sapiens, UniProt P32320)", "T1 construct": "dCDA was partially purified from BxPC-3 cells as previously described; endogenous in cells; host or cells: BxPC-3 (ATCC CRL-1687), 40-55% ammonium sulfate fraction of the cell lysate", "T1 sequence (P32320 whole entry)": "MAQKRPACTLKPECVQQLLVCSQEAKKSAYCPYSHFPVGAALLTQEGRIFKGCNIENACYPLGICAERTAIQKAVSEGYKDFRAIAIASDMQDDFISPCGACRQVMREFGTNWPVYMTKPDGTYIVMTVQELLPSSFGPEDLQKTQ", "assay": "dCDA activity (competition) assay, conversion of dCyd to dUrd", "assay_type": "biochemical", "conditions": "0.5 mM dCyd, 37° C., 15 min; inhibitor […] (FIG. 2B)", "method": "Proton NMR spectra were recorded on a 300 MHz Varian UNITYplus™ or a 500 MHz Varian INOVA. Chemical shifts (δ) of ^1H NMR spectra were recorded in parts per million (ppm) relative to tetramethylsilane (TMS), which was the reference (δ=0 ppm). ^1H NMR data are reported according to the following order: chemical shift, integration (i.e., number of hydrogen atoms), multiplicity (s=singlet, d=doublet, t=triplet, q=quartet, m=multiplet, br=broad, brs=broad singlet), and coupling constant in Hertz (Hz). […] The concentrations of dCyd and dUrd in the dCDA assay were determined using an Agilent 1260 Infinity high performance liquid chromatography (HPLC) with an Agilent ZORBAX® Eclipse Plus C18 column (4.6×150 mm, 5 μm) attached to a ZORBAX® Eclipse Plus guard column (Agilent Technologies, Inc., Santa Clara, Calif.).\ndCDA was partially purified from BxPC-3 cells as previously described. […] Protein concentration was measured using Bradford reagent from Sigma-Aldrich. […] The mixture was centrifuged at 10,000 g for 1 min, and the upper layer was analyzed using HPLC (detection wavelength, 260 nm; mobile phase, 10% methanol in water). The relevant peaks were quantified to determine the concentrations of dCyd and dUrd. […]"}, "[3]": {"test_system": "TC-1 mouse lung cancer cells (s.c. tumors)", "assay": "Anti-tumor activity of PLGA-GemC18-NPs in TC-1 tumor-bearing mice (Example 19)", "assay_type": "in vivo", "conditions": "C57BL/6 mice, i.v. twice a week from day 11, 150 μg GemC18 per mouse per dose or molar equivalent gemcitabine HCl", "method": "The anti-tumor activity of the PLGA-GemC18-NPs was evaluated in female C57BL/6 mice (18-20 g, 6-8 weeks, n=4-5) that were subcutaneously (s.c.) injected with TC-1 mouse lung cancer cells (ATCC # CRL-2785, 5×10^5 cells/mouse) in the right flank. Mouse hair was carefully trimmed at the injection site 1 day prior to the injection. PLGA-GemC18-NPs, GemC18-free NP (PLGA-NPs), gemcitabine hydrochloride (HCl) (U.S. Pharmacopeia; Rockville, Md.) and sterile mannitol (5%, w/v) were intravenously (i.v) injected starting on day 11, twice a week until the end of the study. The dose of the GemC18 was 150 μg per mouse per dose, or the molar equivalent dose for gemcitabine HCl. Tumor size was determined 2-3 times a week and calculated using the formulas: diameter (mm)=[length+width]/2."}},
  "data": [
    {"smiles": "Cl.Nc1ccn([C@@H]2O[C@H](CO)[C@@H](O)C2(F)F)c(=O)n1", "note": "[Gemcitabine HCl, 2′,2′-difluorodeoxycytidine HCl, reference compound]", "values": [
      {"measurement": "B16-F10 tumor growth (tumor volume)", "setting": "[1]", "result": "not significant different from that in mice that received normal saline"},
      {"measurement": "Inhibition of the deamination of dCyd (conversion to dUrd) by dCDA", "setting": "[2]", "result": "competitively inhibited the conversion of dCyd to dUrd"},
      {"measurement": "TC-1 tumor growth (tumor diameter)", "setting": "[3]", "result": "only slightly delayed the TC-1 tumor growth"}
    ]}
  ]
}
